Earlier results as cited in US20190290629A1, “NIRAPARIB SUSTAINED AND CONTROLLED RELEASE PHARMACEUTICAL COMPOSITION AND USE THEREOF” (priority 2016, published 2019).
Read-outs that look alike come from different tables or passages of the source.

Key:
ovarian cancer = conditions: orally once daily
[1] = not given; remark: listed apart in the source
[2] = immediate release capsule, clinical studies

steady-state blood concentration peak value (300 mg/time/day): about 4.4 μM | steady-state blood concentration trough value (300 mg/time/day): ~2.0 µM | time at which steady-state blood concentration is reached (300 mg/time/day): 12 to 14 days | oral bioavailability (immediate release capsule of niraparib tosylate monohydrate, clinical studies): 73% | blood concentration peak time [2]: 3 h | effect of food on plasma exposure [2]: not affected by food | plasma half-life [2]: more than 30 hours | patients with 3-4 grade anemia ([1]; clinical studies): 25% | patients with grade 3-4 platelet reduction ([1]; clinical studies): 29% | patients with neutropenia ([1]; clinical studies): 30%
Structure (SMILES): NC(=O)c1cccc2cn(-c3ccc([C@@H]4CCCNC4)cc3)nc12 [niraparib, (S)-2-(4-(piperidin-3-yl)phenyl)-2H-indazole-7-carboxamide]
median progression free survival time (ovarian cancer; patients with ovarian cancer of BRCA gene mutation, after first chemotherapy): 21 months | median progression free survival time (ovarian cancer; patients without BRCA gene mutations): 9.3 months | dose-limiting toxicity ([1]; clinical): thrombocytopenia and anemia | patients who discontinued the treatment due to toxic and side effects ([1]; clinical studies): 15% | patients who reduced dose or stopped taking the drug due to toxic and side effects ([1]; clinical studies): 69%
